In patent publication US20250144031A1, “COMPOSITION FOR TREATING SPINAL MUSCULAR ATROPHY” (Hoffmann-La Roche Inc., priority 2023, published 2025):

How the values were obtained:
[1] = Risdiplam solubility in tartaric acid solution with sodium croscarmellose or crospovidone (UPLC); type: physicochemical; conditions: 0.6 mg/ml tartaric acid in tap water, pH 4.1, stirred 30 minutes, room temperature
Description: 60 mg of Tartaric Acid were dissolved in 100 ml tap water (0.6 mg/ml) at room temperature and protected from light. A representative amount of Sodium Croscarmellose or Crospovidone was added and dispersed. After that, 100 mg of risdiplam were added, the suspension stirred for 30 minutes und the concentration analyzed by UPLC (see Table 11).

[2] = Impact of sucralose on risdiplam stability; type: physicochemical; conditions: 25 mg risdiplam and 475 mg Sucralose, 15 days at 70° C./75% Relative Humidity
Description: FIG. 3: Discoloration and decomposition of risdiplam in the presence of Sucralose, a) Risdiplam+Sucralose at time 0, b) risdiplam+Sucralose (70° C./75% Relative Humidity) after 15 days, c) sucralose without Risdiplam (70° C./75% Relative Humidity) after 15 days.
The impact of Sucralose on Risdiplam stability was evaluated. Vial (a) contained […] and is shown at time 0; vial (b) is 25 mg risdiplam and 475 mg Sucralose after 15 days at 70° C./75% Relative Humidity; and vial (c) is Sucralose without Risdiplam after 15 days at 70° C./75% Relative Humidity.

[3] = air of a workplace; classified by regulatory authorities at EU and national levels; cited from earlier work

Cc1cn2nc(-c3cc(=O)n4cc(N5CCNC6(CC6)C5)ccc4n3)cc(C)c2n1 [Risdiplam, 7-(4,7-diazaspiro[2.5]octan-7-yl)-2-(2,8-dimethylimidazo[1,2-b]pyridazin-6-yl)pyrido[1,2-a]pyrimidin-4-one]
Concentration (Nominal 1 mg/ml) ([1]; with Crospovidone (75 mg)): 970 µg/mL | Concentration (Nominal 1 mg/ml) ([1]; with Sodium Croscarmellose (75 mg)): 280 µg/mL | Stability of risdiplam in presence of Sucralose [2]: cause discoloration and promote the decomposition of risdiplam | IOEL (occupational exposure limit) [3]: 1.0-10 microgram/m3
